{"source": "paper PMC5462101", "about": "(Future medicinal chemistry, 2015)", "key": {"rat model of colitis": {"system": "rat model of colitis", "assay": "Acetic acid-induced colitis in the rat", "type": "in vivo, Fisher 344 rats", "settings": "0.01 mmol/kg intrarectally, 4% acetic acid; for Change in body weight (%): assessed after 48 h; for Score (levels 0–5): colonic damage score, 48 h", "procedure": "LOX has also been associated with inflammation and ulcerative colitis. In the present study, a model for colitis involving intracolonic administration of aqueous 4% acetic acid in the rat was used, leading to acute inflammatory reaction. Treated rats presented partial to diffuse petechial bleeding, single erosion and limited ulceration indicating an overall healing effect of the compounds. Substituted pteridines presenting a satisfactory combination of activities 5a, 18a, 18d and 18f were tested using this in vivo model characterized by diffuse exfoliated mucosa as well as multiple and extended erosion and ulcers of the colon (Table 3). No mortality was encountered.\n(§1) Fisher 344 rats (150-200 g) were housed in wire-mesh cages, given standard laboratory chow and tap water ad libitum and acclimatized for one week before experiments. Rats were randomly assigned to experimental groups. All in vivo experiments conform to the law for the protection of experimental animals (Republic of Greece) and are registered at the Veterinary Administration of the Republic of Greece in accordance with recognized guidelines on animal experimentation including Directive 2010/63/EU.\nInduction of colitis\nRats were anesthetized using pentobarbital (50 mg/kg ip) prior to administration with 1 mL of either vehicle (0.9% w/v saline) or the compound under study at doses 0.01mmol/kg intrarectally via a polyethylene cannula (fitted to a 1 mL syringe) with the tip inserted approximately 8 cm into the anus. Following 30 min pretreatment, 1 ml of 4% acetic acid was introduced into the colon intrarectally and, after exposure for 60 s, the excess fluid was withdrawn. The luminal content was then expelled by instillation of air (10 mL), the ligature was removed and the abdomen was sutured. Both groups of rats were allowed to recover with food and water and the resulting injury was assessed after 48 h. The experiment was conducted using two groups, each containing 3 animals.\nAssessment of colonic damage. Rats were weighed, inspected for the presence of diarrhea and sacrificed using diethyl ether. The colons were excised and opened longitudinally, rinsed with cold saline, pinned out and observed under a dissecting microscope. Colonic damage was scored using the system of MacPherson and Pfeiffer: 0 – normal appearance, 1- hyperaemia, 2 – patchy petechial bleeding, 3 – diffuse petechial bleeding, 4 – partial exfoliated mucosa or single erosion or ulceration, 5 – diffuse exfoliated mucosa or multiple erosions or ulceration. The presence or absence of adhesions between the colon and the surrounding tissues was recorded. Scoring of the colonic damage (Table 4) was carried out by an observer unaware of the treatment."}, "soybean lipoxygenase": {"biological_target": "T1, soybean lipoxygenase (Glycine max, UniProt P08170)", "T1 construct": "purchased Sigma", "T1 sequence (P08170 1-839)": "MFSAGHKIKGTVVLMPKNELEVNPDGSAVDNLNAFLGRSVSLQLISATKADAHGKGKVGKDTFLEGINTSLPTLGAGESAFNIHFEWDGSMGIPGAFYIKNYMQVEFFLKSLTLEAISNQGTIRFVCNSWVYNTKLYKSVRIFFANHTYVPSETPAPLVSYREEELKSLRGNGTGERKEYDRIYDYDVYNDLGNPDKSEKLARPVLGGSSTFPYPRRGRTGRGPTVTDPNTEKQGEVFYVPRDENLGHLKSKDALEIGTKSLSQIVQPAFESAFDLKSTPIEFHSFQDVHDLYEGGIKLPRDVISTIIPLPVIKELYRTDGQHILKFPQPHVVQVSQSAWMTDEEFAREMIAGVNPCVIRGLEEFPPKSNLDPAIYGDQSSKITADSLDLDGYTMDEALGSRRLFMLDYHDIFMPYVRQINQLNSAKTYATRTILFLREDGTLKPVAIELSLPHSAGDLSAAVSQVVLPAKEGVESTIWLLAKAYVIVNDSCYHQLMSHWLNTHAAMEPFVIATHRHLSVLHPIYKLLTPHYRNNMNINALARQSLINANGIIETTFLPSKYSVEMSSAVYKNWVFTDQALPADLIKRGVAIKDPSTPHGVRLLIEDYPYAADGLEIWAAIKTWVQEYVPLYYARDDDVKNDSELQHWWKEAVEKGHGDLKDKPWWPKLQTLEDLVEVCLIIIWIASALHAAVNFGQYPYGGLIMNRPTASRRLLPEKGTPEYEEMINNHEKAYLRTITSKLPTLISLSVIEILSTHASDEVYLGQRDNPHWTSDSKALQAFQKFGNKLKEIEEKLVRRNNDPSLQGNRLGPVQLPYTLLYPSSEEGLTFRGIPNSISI", "assay": "Inhibition of soybean lipoxygenase", "type": "biochemical", "settings": "for inhibition at 100 µM: compound at 100 µM, read-out: Lipoxygenase inhibitory activity (% at 100 µM)", "procedure": "The substituted pteridines prepared were assayed for inhibition of soybean lipoxygenase (Table 1) (Supplementary Information). Many studies have used readily obtainable soybean lipoxygenase, which is a homologue of mammalian lipoxygenase and well examined. The availability of soybean LOX and its well-characterized crystal structure led to its use in this study.\nDetermination of soybean lipoxygenase inhibition\nA solution in DMSO of each compound to be tested was incubated at room temperature with sodium linoleate (0.1 mM) and a solution of soybean lipoxygenase (EC 1.13.11.12) (1:9 x 10^4 w/v in saline, 0.2 mL, Sigma). The conversion of sodium linoleate to 13-hydroperoxylinoleic acid was monitored by observation at 234 nm and compared with the value of appropriate standard inhibitor (Table 1).\n(§2) IC50 determinations. OriginPro 8 was used to determine IC50 values from the sigmoidal line fitted to a graph of log[concentration] against the average percentage inhibition from two independent experiments, with at least 6 different concentrations. The SEM is the calculated standard error in the IC50 value of the fitted line."}, "[1]": {"assay": "Competition with DMSO for hydroxyl radicals", "settings": "compound at 100 µM, Fe3+/ascorbic acid, DMSO 33 mM", "procedure": "Competition of the novel pteridine derivatives with dimethyl sulfoxide for hydroxyl radicals was measured. […] The majority of the derivatives were excellent scavengers of hydroxyl radicals with activity higher than the reference compound 6-hydroxy-2,5,7,8-tetramethylchroman-2-carboxylic acid (Trolox).\nCompetition of pteridine derivatives with DMSO for hydroxyl radicals\nHydroxyl radicals generated by the Fe^3+/ascorbic acid system were detected by determination of formaldehyde produced from the oxidation of DMSO, according to the procedure of Nash. The reaction mixture comprised ethylenediaminetetracetic acid (EDTA) (0.1 mM), Fe^3+ (167 μM), DMSO (33 mM) in phosphate buffer (50 mM, pH 7.4), ascorbic acid (10 mM) and the compound to be tested at 100 µM. After incubation at 37 °C for 30 min the mixture was quenched with aqueous trichloroacetic acid (17% w/v) (Table 2) and the percentage competition of the tested compounds with DMSO for hydroxyl radicals was determined (Table 2)."}, "[2]": {"assay": "Inhibition of linoleic acid peroxidation (AAPH)", "settings": "linoleic acid peroxidation initiated by AAPH, 37 °C, pH 7.4", "text": "Azo compounds that generate free radicals through spontaneous thermal decomposition are useful for in vitro studies of free radical production. The water-soluble AAPH has been extensively used as a clean and controllable source of thermally produced alkylperoxyl free radicals. […] Evidently, the presence of 6,7-dimethyl groups on the pteridine ring greatly enhances protection against lipid peroxidation; the nature of the alkyl group and ring size on the 2-substituent has some, but much less, effect. […] The role of lipophilicity (as assessed from calculated clogP values; Table 1) is not clear, but substituent bulk plays a significant role.\nInhibition of linoleic acid peroxidation\nProduction of conjugated diene hydroperoxide by oxidation of linoleic acid in an aqueous dispersion was monitored at 234 nm. 2,2’-Azobis(2-amidinopropane) dihydrochloride (AAPH) was used as a free radical initiator. This assay was used to follow oxidative changes and to determine the inhibition of the peroxidation of sodium linoleate by each tested compound. A dispersion of sodium linoleate (16 mM, 10 μL) was added to the UV cuvette containing phosphate buffer (0.05 M, 0.93 mL) at pH 7.4 and kept in a thermostat at 37 °C. The oxidation reaction was initiated at 37 °C under air by the addition of AAPH solution (40 mM, 50 μL). Oxidation was carried out in the presence of aliquots (10 μL) of the tested compound. In the assay without antioxidant, lipid oxidation was measured in the presence of DMSO (10 μL). The rate of oxidation at 37 °C was monitored by recording the increase in absorption at 234 nm caused by conjugated diene hydroperoxide formation (Table 2).\nas §2"}, "[3]": {"assay": "Reducing ability in DPPH assay", "settings": "compound 100 μM", "procedure": "Previous work has shown that pterins, their dihydro- and their tetrahydro-derivatives can each be antioxidants or pro-oxidants, depending on the particular conditions. In the present study, several assays were used to assess in vitro antioxidant activity in order to obtain representative information; each method involves the generation of a different radical.\nDetermination of reducing activity using 1,1-diphenyl-2-picrylhydrazyl radical (DPPH)\nTo a solution of DPPH in absolute ethanol was added an equal volume of the compound to be tested dissolved in DMSO (20 µL). From a stock solution (10 mM) was prepared a final solution of 100 µM for evaluation of the compounds. The absorbance at 517 nm was recorded after 20 and 60 min at room temperature (Table 2)."}, "[4]": {"system": "carrageenin-induced rat paw edema", "assay": "Inhibition of carrageenin-induced rat paw edema", "type": "in vivo, Fisher 344 rats", "settings": "rat, 0.01 mmol/kg intraperitoneally, 1 h, mean of two experiments", "procedure": "The incipient pattern of this edema is characterized by the effects of histamine and 5-hydroxytryptamine. After 1 h, reduction of edema in the rat paw achieved by the pteridine 18f was appreciably greater than the reduction induced by the reference compound indomethacin, a nonselective COX-inhibitor and commonly used nonsteroidal anti-inflammatory drug. Thus, 18f and some related pteridines offer significant protection against reactive oxygen species produced in a model of colitis, probably on account of their properties as antioxidants and radical scavengers.\nas §1\nInhibition of carrageenin-induced edema\nEdema was induced in the right hind paw of Fisher 344 rats (150-200 g) by intradermal injection of aqueous carrageenin (0.1 mL, 2%). Pregnant females were excluded from the study, but both sexes were used. Each group comprised 6-15 rats which were bred and housed under standard conditions and received a diet of commercial food pellets and water ad libitum during maintenance but were entirely fasted during the experiment period. Each compound (0.01 mmol/kg body weight) was suspended in water to which had been added a few drops of Tween 80 and then the mixture was ground in a mortar prior to being administered intraperitoneally and simultaneously with the carrageenin injection. Rats were euthanized 1 h after injection, and the difference between the weight of the injected and non-injected paws was calculated for each animal. The change in paw weight was compared with that in control animals (treated with water) and the inhibition of the edema was expressed as a percentage (Table 4). […]"}}, "note": "Marks after values point to notes of the source that are not given here.", "data": [{"smiles": "CN1CCN(c2nc(N)c3nccnc3n2)CC1", "note": "[Compound 5a, 2-(4-methylpiperazin-1-yl) pteridin-4-amine]", "values": [{"measurement": "Change in body weight (%)", "setting": "rat model of colitis", "value": -1.1, "unit": "%"}, {"measurement": "inhibition at 100 µM", "setting": "soybean lipoxygenase", "value": "37.5 ± 0.1", "unit": "%"}, {"measurement": "Hydroxyl radicals scavenged (%)", "setting": "[1]", "value": 98, "unit": "%"}, {"measurement": "IC50", "setting": "[2]", "value": "41 ± 1.1", "unit": "µM"}, {"measurement": "RA (%) 100μM 20 min", "setting": "[3]", "value": 15, "unit": "%"}, {"measurement": "RA (%) 100μM 60 min", "setting": "[3]", "value": 14, "unit": "%"}]}, {"smiles": "CN1CCN(c2nc(NCc3ccccc3)c3nccnc3n2)CC1", "note": "[Compound 18a]", "values": [{"measurement": "Change in body weight (%)", "setting": "rat model of colitis", "value": -4.2, "unit": "%"}, {"measurement": "Score (levels 0–5)", "setting": "rat model of colitis", "value": "One rat exhibited hyperemia (1); the rest presented petechial bleeding (patchy to diffuse) (2–3)"}, {"measurement": "inhibition at 100 µM", "setting": "soybean lipoxygenase", "value": "31.5 ± 0.2", "unit": "%"}, {"measurement": "Hydroxyl radicals scavenged (%)", "setting": "[1]", "value": 91, "unit": "%"}, {"measurement": "IC50", "setting": "[2]", "value": "22 ± 0.8", "unit": "µM"}, {"measurement": "RA (%) 100μM 20 min", "setting": "[3]", "value": 2, "unit": "%"}, {"measurement": "RA (%) 100μM 60 min", "setting": "[3]", "value": 7, "unit": "%"}]}, {"smiles": "CN1CCN(c2nc(NCc3cccnc3)c3nccnc3n2)CC1", "note": "[Compound 18d]", "values": [{"measurement": "Change in body weight (%)", "setting": "rat model of colitis", "value": -7, "unit": "%"}, {"measurement": "Score (levels 0–5)", "setting": "rat model of colitis", "value": "One rat exhibited patchy petechial bleeding (2), and another diffuse petechial bleeding (3); the rest presented partial exfoliated mucosa or single erosion or ulcer"}, {"measurement": "IC50", "setting": "soybean lipoxygenase; sodium linoleate 0.1 mM, read-out: Lipoxygenase inhibitory activity (IC50)", "value": "0.1 ± 0.01", "unit": "µM"}, {"measurement": "Hydroxyl radicals scavenged (%)", "setting": "[1]", "value": 95, "unit": "%"}, {"measurement": "IC50", "setting": "[2]", "value": "32.5 ± 1", "unit": "µM"}, {"measurement": "RA (%) 100μM 20 min", "setting": "[3]", "value": 10, "unit": "%"}, {"measurement": "RA (%) 100μM 60 min", "setting": "[3]", "value": 11, "unit": "%"}]}, {"smiles": "COc1ccc2c(c1)c(CC(=O)O)c(C)n2C(=O)c1ccc(Cl)cc1", "note": "[Indomethacin, indomethacin, reference compound]", "values": [{"measurement": "Reduction of rat paw edema after 1 h (%)", "setting": "[4]", "value": "25 ^† %"}]}]}
